# Experimental data: ChEMBL document CHEMBL3507680, “University of Dundee, Gates Library screen for HepG2 cell viability”
# Assay: Human HepG2 cell viability assay in 384 well format
# Format: toxicity, cell-based
# Design: dose 125 nL, time 70.5 hour; concentration not given beside the values
# Details: HepG2 cells, read-out: Inhibition
row,SMILES,cytotoxicity at 70.5 h
1,CC1c2ncc(Cn3cncn3)n2CCN1C(=O)C1CCOCC1 (stereo not drawn),-2.59%
2,COCC(=O)N1CC[C@H]2C[C@@H](c3nnc(C4CC4)o3)O[C@@H]2C1,5.55%
3,CN(Cc1ccccn1)C1COC2(CCN(Cc3nccs3)CC2)C1 (stereo not drawn),15.3%
4,Cn1cccc1C(=O)N1CCN(CC2CC2)c2ncccc2C1,2.74%
5,Cn1cccc1C(=O)N1CCc2ncc(Cn3cccn3)n2CC1,16.9%
6,CCNC(=O)c1nc2c(s1)CCCN2S(C)(=O)=O,28.7%
7,FC(F)(F)c1cc(N2CCc3ncnc(NC4CC4)c3CC2)ncn1,5.67%
8,CN(C)CC(=O)N1CCOCC2(C1)CN(c1ccccc1)C(=O)CO2 (stereo not drawn),-45.3%
9,Cc1nc(CN2C[C@@H]3OCCN(c4ncc(F)cn4)[C@@H]3C2)cs1,-11.3%
10,COCCN1CCN(C(=O)C2CC=CC2)Cc2cccnc21,-12%
11,COCCN1C(=O)[C@]2(CC[C@@H]3CN(C(=O)NC4CCCC4)C[C@@H]32)N=C1C,-14.1%
12,CN1CCC(c2cnc(NCc3nccn3C)cn2)CC1,17.9%
13,CCCn1nccc1-c1nccnc1CC1CCN(C(C)=O)C1 (stereo not drawn),-2.05%
14,Cc1nc(-c2ccc(CNS(=O)(=O)N(C)C)cc2)ccc1C(N)=O,-2.19%
15,CC(C)C(=O)N1CCC(c2c(C(N)=O)sc3ccccc23)C1 (stereo not drawn),18.5%
16,COCC(=O)N1CCCC(c2nc(N)ncc2-c2cccc(F)c2)C1 (stereo not drawn),2.19%
17,CN(C)S(=O)(=O)N1CCC(c2ccnc(Nc3ccccn3)n2)C1 (stereo not drawn),-0.703%
18,CN(C)c1cc(C2CCCN(C(=O)c3noc4c3CCCC4)C2)ccn1 (stereo not drawn),-1.31%
19,O=C(c1noc2c1CCCC2)N1CCCC(c2nccs2)C1 (stereo not drawn),-3.76%
20,Cc1cc(C)n(-c2nc(C(=O)NCCS(=O)(=O)N3CCCCC3)cs2)n1,-2.01%
21,O=C(NCC1CCOCC1)c1cc(-c2ccncc2)c2cnccc2n1,-2.01%
22,CC(=O)Nc1ccc(CCC2(NC(=O)C3CCCO3)CCCCC2)cn1 (stereo not drawn),-0.834%
23,Cc1nc(C(=O)N2CCC(c3cc(CCO)n(C)n3)C2)co1 (stereo not drawn),16.6%

row,SMILES,cytotoxicity at 70.5 h
1,COCC(=O)N1CCCC(c2nc(N(C)C)ncc2-c2ccccc2)C1 (stereo not drawn),4.41%
2,COCCC(=O)N1CCC(c2ccc3c(NC(C)C)n[nH]c3n2)C1 (stereo not drawn),-6.39%
3,Cc1cc(Cc2ccccc2C)cc(C2CCCNC2)n1 (stereo not drawn),-4.93%
4,CCS(=O)(=O)N1C[C@@H](O)[C@H](Oc2cccc(F)c2)C1,-9.71%
5,O=C(O)c1ccccc1-c1ccc(CN2CCOCC2)cn1,-7.9%
6,Cc1cc(Cc2ccccc2)cc(C2CCCNC2)n1 (stereo not drawn),-5.23%
7,Cc1ncc(CN)c(-c2cn(C)c3ccccc23)n1,-7.92%
8,O=C(O)c1ccccc1-c1ccc(CN2CCC(CO)CC2)cn1,-9.48%
9,CNc1cc(C2CCN2c2ncccn2)nc(C)n1 (stereo not drawn),-6.05%
10,CNC(=O)C1(C)CN(c2nnc(C)c3ccccc23)CCO1 (stereo not drawn),-6.81%
11,CC(C)(C)OC(=O)N1CCn2c(nnc2C2CCCNC2)C1 (stereo not drawn),6.76%
12,CC(=O)N1CCC(CCc2ccnc(Nc3ccccn3)c2)CC1,26.8%
13,Cn1cnc2ccc(NC(=O)CC3CCN(S(C)(=O)=O)CC3)cc21,12%
14,CCn1c(C)nc2cc(NC(=O)CC3CCN(S(C)(=O)=O)CC3)ccc21,-18.6%
15,O=C(O)c1ccccc1-c1ccc(CNC(=O)C2CCOCC2)cc1,-4.99%
16,Cc1n[nH]c(C)c1CC(=O)N1CCC(O)(CN2CCOCC2)C1 (stereo not drawn),-12.6%
17,CC(=O)N1CCCC(C(=O)c2cnn(-c3ccc(F)cc3)c2N)C1 (stereo not drawn),-2.75%
18,COCC(=O)N1CCCC(C(=O)c2cnn(-c3ccc(F)cc3)c2N)C1 (stereo not drawn),9.29%
19,CCOc1ccc(CN2CCC(c3[nH]ncc3C)C2)cc1CO (stereo not drawn),-7.99%
20,Cc1ccnc(NC(=O)c2cnc(C3CCCNC3)cn2)c1 (stereo not drawn),-4.33%
21,Nc1no[n+]([O-])c1C(=O)NCc1ccco1,7.08%
22,Cc1ccc(N2CC(c3nccc(C)n3)C2)nn1,9.5%
23,O=C(c1cc(-c2cccnc2)[nH]n1)N1CCCC(Cc2ccccn2)C1 (stereo not drawn),9.07%

row,SMILES,cytotoxicity at 70.5 h
1,CS(=O)(=O)c1cncnc1C1CCCN(C(=O)NCc2ccccc2)C1 (stereo not drawn),-6.21%
2,CCc1nccn1CC(=O)Nc1cccc(N2CCCC2)c1,9.22%
3,CC(C)(C)c1ccc(OCC(=O)O)c(CN2C[C@H]3C[C@H](O)C[C@H]3C2)c1,2.38%
4,Cc1cc(C(=O)N2CCOCC2c2nc(C)c[nH]2)nc(O)n1 (stereo not drawn),3.31%
5,CCN(Cc1cccnc1)CC1(C)Cc2c(N)nc(N)nc2O1 (stereo not drawn),-1.96%
6,CC(=O)N1CCC(c2nccnc2C)CC1,-1.76%
7,CC(=O)N1CCCC1(C)c1nc(C)no1 (stereo not drawn),0.978%
8,Cc1nccnc1C1CCN(C(=O)C(C)C)CC1,-5.9%
9,CN1C[C@@H](c2cccc(F)c2)[C@H]2[C@H]1CCCCCN2C(=O)C1CC1,2.38%
10,CCC(=O)N1CCCCC[C@@H]2[C@@H]1[C@H](c1cccc(F)c1)CN2C,16.4%
11,CCc1cc(C(F)(F)F)n2nc(C3CCCN3C(=O)COC)cc2n1 (stereo not drawn),-4.23%
12,Cn1nc(C2CC2)cc1C(=O)N1CCC(c2nnsc2S(C)(=O)=O)CC1,-4.78%
13,O=C1NC2(CCc3ccccc31)CCN(Cc1cccnc1)C2 (stereo not drawn),3.7%
14,Cc1ccc2c(c1)c(C)cc(=O)n2CC(=O)O,-2.86%
15,Cc1cc(C(F)(F)F)n2nc(C3CCCN(S(C)(=O)=O)C3)cc2n1 (stereo not drawn),-2.03%
16,O=C1NC2(CCN(C(=O)CN3CCOCC3)CC2)Nc2ccc(Cl)cc21,-2.29%
17,Cc1c(CNC2CCN(c3ccccc3OC(F)F)C2)cnn1C (stereo not drawn),-3.92%
18,O=c1oc2ccccc2n1CCN(CC1CCOC1)C1CC1 (stereo not drawn),-11.1%
19,Cc1cc(C)n(Cc2cccc(C(=O)N3CCOCC3(C)C)c2)n1,-10%
20,Cc1noc(CN2CCN(C(C)C(=O)NCc3cccs3)CC2)n1 (stereo not drawn),13.6%
21,CC(C)(C)n1ncc(NCc2ccccc2)c(Cl)c1=O,22.2%
22,O=C(NCCNC(=O)C1CCN(c2ncccn2)CC1)c1ccoc1,6.55%
23,CC(C)CN1CCC(C(=O)NCCNC(=O)c2ccco2)CC1,-5.07%

row,SMILES,cytotoxicity at 70.5 h
1,O=C(NCCNC(=O)C1CCN(CC(F)(F)F)CC1)c1ccoc1,-4.81%
2,CN1CCN(C(=O)Cc2csc(-c3ccsc3)n2)C(c2ccccc2)C1 (stereo not drawn),-3.75%
3,CC(NCc1ccccn1)c1ccc(N2CCN(C)CC2)c(F)c1 (stereo not drawn),11.1%
4,CC(C)NC(=O)CN(C)C(=O)c1c(Cl)c2ccccc2n1C,-0.0324%
5,CC(C)c1nc(CC(=O)N2CCN(C)CC2c2ccccc2)cs1 (stereo not drawn),12.9%
6,CCC(Nc1ncccn1)c1ccc(OC)cc1 (stereo not drawn),6.83%
7,N#Cc1ccc(S(=O)(=O)Nc2ccc(N3CCOCC3)cn2)cc1,0.03%
8,Cc1cnn(CC2CCN(CC(O)c3ccccc3F)CC2)c1 (stereo not drawn),8.3%
9,N#Cc1cnn(C(=O)COc2ccccc2F)c1N,1.04%
10,CN(C)CCOc1cc(NC(=O)COCC(F)(F)F)ccn1,-2.8%
11,Cc1cc(C(F)(F)F)nc(N(C)Cc2c(C)noc2C)n1,13.3%
12,COCc1ccccc1C(=O)NS(=O)(=O)CCCC#N,-3.12%
13,Cc1cccc(CC(=O)NC2CCN(C(=O)NC(C)(C)C)CC2)c1,12.2%
14,Cc1cc(CN2CCN(C(C)C(=O)NCc3cccs3)CC2)no1 (stereo not drawn),-2.27%
15,Cc1cnn(CC2CCN(CC(O)CN3CCC(C)CC3)CC2)c1 (stereo not drawn),-4.29%
16,CC(C)NC(=O)CN(C)C(=O)c1c(Br)c2ccccc2n1C,-4.11%
17,COc1ccc(SC(C)C(=O)N2CCC(NC(=O)C3CC3)CC2)cc1 (stereo not drawn),8.09%
18,Cc1noc(C)c1CN(C)c1nccc(C(F)(F)F)n1,4.31%
19,O=C(CCn1cncn1)NCC1CCOC1 (stereo not drawn),-6.75%
20,O=C(c1ccc(Oc2cccnc2)cc1)N1CCN(CCO)CC1,-18.5%
21,Cc1cnc(CN2CCCCC2c2nc(-c3ccccc3)no2)cn1 (stereo not drawn),-7.59%
22,O=C(NCC1CCCO1)c1cc(-c2ccncc2)c2cnccc2n1 (stereo not drawn),-8.71%
23,CNC[C@H]1CC[C@H](c2cc(CN(C)C(=O)c3cnccn3)n(C)n2)CC1,-8.17%

row,SMILES,cytotoxicity at 70.5 h
1,COc1ccccc1Cc1cncc(N2CC(C(=O)O)C2)n1,-13.5%
2,c1nnc(Nc2cncc(C3CCCN3)n2)s1 (stereo not drawn),-7.63%
3,O=C(O)C1(Cc2ccc(-c3cccs3)cc2)CCNC1 (stereo not drawn),-2.56%
4,COc1cc2c(cc1CNC(Cc1cccs1)c1nccs1)OCO2 (stereo not drawn),18.9%
5,Cc1cc2c(cc1CNC(Cc1cccs1)c1nccs1)OCO2 (stereo not drawn),1.05%
6,Cc1ccc(CNC(C)c2ccc(N3CCN(C)CC3)c(F)c2)o1 (stereo not drawn),0.0517%
7,CC(C)(CN)NS(=O)(=O)c1cccc(F)c1F,9.16%
8,Cc1c(F)cccc1S(=O)(=O)NC(C)(C)CN,-3.29%
9,CC(NCc1ccncc1)c1ccc(N2CCN(C)CC2)c(F)c1 (stereo not drawn),4.11%
10,Cn1nccc1-c1ccc2nc(C3CCN(CCO)CC3)nn2c1,-2.61%
11,O=C(N1CCCO1)[C@@]12CCO[C@@H]1CCN(C1CCCCC1)C2,14%
12,Cc1ccc(CN2C[C@@H]3COC[C@H](NS(C)(=O)=O)[C@@H]3C2)o1,-12.4%
13,Cc1nc(N2CCOCC2)nc2c1CCN(Cc1cccnc1)CC2,-17.8%
14,COCCN1C[C@@H](C)[C@@]2(COCCN(C(=O)c3cnc(C)cn3)C2)C1,-5.26%
15,CC(=O)N1CCOCC2(CCN(Cc3ccc(C)s3)CC2)C1,-4.66%
16,Cc1ncnc2c1CCN(Cc1cccs1)CC2,22.9%
17,O=C(NC1CC1)[C@H]1C[C@H]2OCC[C@H]2N(CC2CC2)C1,13.9%
18,Cc1nc(Nc2nncs2)cc(C2CNC2)n1,-5.34%
19,Cn1cc(CN2C[C@@H]3COC[C@]3(C(=O)NCc3ccccn3)C2)cn1,-17.5%
20,COCc1cnc2n1CCN(Cc1cccnc1)C2C (stereo not drawn),-17.6%
21,CO[C@H]1CCN(S(=O)(=O)c2cn(C)cn2)[C@H]1Cc1cccnc1,-22.4%
